pIC50: −log10 of the molar value. Read-outs that look alike come from different tables or passages of the source.
Legend:
PDE3A = target: T1, PDE3A (Homo sapiens, UniProt Q14432); experiment: In vitro inhibitory effect on PDE3A enzyme (AMP-Glo assay); type: biochemical
T1 construct: purchased BPS
Method: (§1) 1. Table 1 Main reagents and consumables for in vitro detection of inhibitory effect
(§2) 2. Preparation of experimental buffers Reaction buffer (5×): 50 mM Tris-HCl (buffer), 50 mM MgCl2, 0.5% BSA, 0.25% Tween-20, pH 7.4, stored at -20°C. 3. […] The starting concentration of the reference substance serial dilution was the Low control, and 1% DMSO-reaction buffer served as the High control. • 3) The enzyme was diluted to the desired concentration with 1× reaction buffer, and 4 µL of the diluted solution was transferred to the assay plate. After centrifugation, the 384-well low dead-volume microplate was sealed with sealing film and incubated in the incubator at 23°C for 15 minutes. • 4) The substrate cAMP was diluted to the desired concentration using 1× reaction buffer, and 5 µL of the diluted solution was transferred to the assay plate. After centrifugation, the plate was sealed again and incubated in the incubator at 23°C for 60 minutes (PDE3A) or 10 minutes (PDE4B1). • 5) Then, 5 µL of Reagent I from the AMP-Glo™ Assay Kit was added to the assay plate. After centrifugation and sealing, the plate was incubated in the incubator at 23°C for 60 minutes. • 6) The detection solution was prepared according to the AMP-Glo™ Assay Kit instructions, and 10 µL of the detection solution was added to the assay plate. After centrifugation and sealing, the plate was incubated in the incubator at 23°C for 60 minutes. • 7) The readout was recorded using a multimode microplate reader. 4. […] 5.

PDE4B1 = target: T2, PDE4B1 (Homo sapiens, UniProt Q07343); experiment: In vitro inhibitory effect on PDE4B1 enzyme (AMP-Glo assay); type: biochemical
T2 construct: purchased Sigma
T2 sequence (Q07343 whole entry): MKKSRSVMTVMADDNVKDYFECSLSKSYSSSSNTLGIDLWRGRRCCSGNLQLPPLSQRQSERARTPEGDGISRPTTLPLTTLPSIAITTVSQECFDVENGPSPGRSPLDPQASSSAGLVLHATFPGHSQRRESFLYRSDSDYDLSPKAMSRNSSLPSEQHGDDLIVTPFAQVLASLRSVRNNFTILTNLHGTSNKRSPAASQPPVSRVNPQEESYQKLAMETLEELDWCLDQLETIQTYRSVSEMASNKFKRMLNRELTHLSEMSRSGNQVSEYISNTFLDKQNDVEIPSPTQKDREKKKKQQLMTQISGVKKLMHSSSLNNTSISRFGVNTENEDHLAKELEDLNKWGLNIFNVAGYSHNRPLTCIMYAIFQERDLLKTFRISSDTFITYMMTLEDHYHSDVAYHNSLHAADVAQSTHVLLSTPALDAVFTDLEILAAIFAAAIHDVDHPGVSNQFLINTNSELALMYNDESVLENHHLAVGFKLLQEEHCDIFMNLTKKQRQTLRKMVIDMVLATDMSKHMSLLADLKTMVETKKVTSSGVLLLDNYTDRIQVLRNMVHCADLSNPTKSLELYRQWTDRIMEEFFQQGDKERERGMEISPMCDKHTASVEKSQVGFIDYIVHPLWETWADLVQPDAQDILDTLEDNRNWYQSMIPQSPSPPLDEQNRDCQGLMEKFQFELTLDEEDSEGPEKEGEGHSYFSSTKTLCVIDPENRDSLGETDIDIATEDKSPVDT
Method: as §1, §2

CYP1A2 = CYP1A2 (Homo sapiens, UniProt P05177); experiment: In vitro CYP inhibition in human liver microsomes, CYP1A2
CYP1A2, sequence (P05177 whole entry): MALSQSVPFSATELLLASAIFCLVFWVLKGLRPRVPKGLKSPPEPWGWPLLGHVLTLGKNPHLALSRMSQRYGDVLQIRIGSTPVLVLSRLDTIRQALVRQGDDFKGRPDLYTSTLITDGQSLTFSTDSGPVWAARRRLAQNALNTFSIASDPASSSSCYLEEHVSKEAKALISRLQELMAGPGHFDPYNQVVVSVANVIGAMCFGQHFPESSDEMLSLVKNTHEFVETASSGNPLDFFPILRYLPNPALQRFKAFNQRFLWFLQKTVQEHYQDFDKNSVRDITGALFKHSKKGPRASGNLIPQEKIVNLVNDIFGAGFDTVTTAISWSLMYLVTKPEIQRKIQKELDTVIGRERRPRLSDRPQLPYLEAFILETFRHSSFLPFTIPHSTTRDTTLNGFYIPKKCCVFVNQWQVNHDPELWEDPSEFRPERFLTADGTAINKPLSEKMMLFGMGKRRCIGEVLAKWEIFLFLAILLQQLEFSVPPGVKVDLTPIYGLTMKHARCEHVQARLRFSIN
Method: (§3) 1.1 Working solutions (100×) of sample compounds and standard inhibitors were prepared.
(§4) 1.2 Microsomes were removed from a -80°C refrigerator, thawed on ice, labeled with the date, and stored in the refrigerator immediately after use.
(§5) 1.3 20 µL of substrate solution was added to the corresponding wells, while 20 µL of PB (phosphate buffer) was added to the blank wells.
(§6) 1.4 2 µL of sample compound solution and positive control working solution were added to the appropriate wells, while 2 µL of solvent was added to inhibitor-free wells and blank wells.
(§7) 1.5 HLM (human liver microsome) working solution was prepared.
(§8) 1.6 158 µL of HLM working solution was added to all wells of the plate.
(§9) 1.7 The plate was pre-incubated in a 37°C water bath for approximately 10 minutes.
(§10) 1.8 NADPH (nicotinamide adenosine denucleotide hydro-phosphoric acid, i.e. reduced form coenzyme II) cofactor solution was prepared.
(§11) 1.9 20 µL of NADPH cofactor solution was added to all incubation wells.
(§12) 1.10 The solution was mixed and the plate was placed in 37°C water bath to incubate CYP for 10 minutes.
(§13) 1.11 At designated time points, the reaction was terminated by adding 400 µL of cold stopping solution.
(§14) 1.13 200 µL of the supernatant was transferred into 100 µL of HPLC-grade water and vortexed for 10 minutes.
(§15) 1.14 Samples were subjected to LC/MS/MS analysis.
(§16) Concentration-inhibition percentage curves of the control compound and test compounds were plotted using XL Fit or SigmaPlot, followed by nonlinear regression analysis.
(§17) IC50 values were determined using a 3 or 4 parameter logistic equation.

CYP2C9 = CYP2C9 (Homo sapiens, UniProt P11712); experiment: In vitro CYP inhibition in human liver microsomes, CYP2C9
CYP2C9, sequence (P11712 whole entry): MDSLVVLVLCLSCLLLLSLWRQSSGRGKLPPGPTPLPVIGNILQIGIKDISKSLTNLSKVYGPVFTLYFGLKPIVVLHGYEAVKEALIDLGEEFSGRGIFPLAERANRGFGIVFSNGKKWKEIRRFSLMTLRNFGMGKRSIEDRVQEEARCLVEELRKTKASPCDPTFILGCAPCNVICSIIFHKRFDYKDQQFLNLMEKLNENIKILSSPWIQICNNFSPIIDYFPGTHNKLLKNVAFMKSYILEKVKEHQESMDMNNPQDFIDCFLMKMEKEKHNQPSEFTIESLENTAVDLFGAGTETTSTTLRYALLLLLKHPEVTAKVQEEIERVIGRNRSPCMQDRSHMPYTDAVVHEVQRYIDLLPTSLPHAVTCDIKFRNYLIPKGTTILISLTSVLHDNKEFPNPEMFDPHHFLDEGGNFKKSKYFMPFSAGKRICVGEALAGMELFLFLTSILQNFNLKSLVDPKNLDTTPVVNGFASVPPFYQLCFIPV
Method: as §3, §4, §5, §6, §7, §8, §9, §10, §11, §12, §13, §14, §15, §16, §17

CYP2D6 = CYP2D6 (Homo sapiens, UniProt P10635); experiment: In vitro CYP inhibition in human liver microsomes, CYP2D6
CYP2D6, sequence (P10635 whole entry): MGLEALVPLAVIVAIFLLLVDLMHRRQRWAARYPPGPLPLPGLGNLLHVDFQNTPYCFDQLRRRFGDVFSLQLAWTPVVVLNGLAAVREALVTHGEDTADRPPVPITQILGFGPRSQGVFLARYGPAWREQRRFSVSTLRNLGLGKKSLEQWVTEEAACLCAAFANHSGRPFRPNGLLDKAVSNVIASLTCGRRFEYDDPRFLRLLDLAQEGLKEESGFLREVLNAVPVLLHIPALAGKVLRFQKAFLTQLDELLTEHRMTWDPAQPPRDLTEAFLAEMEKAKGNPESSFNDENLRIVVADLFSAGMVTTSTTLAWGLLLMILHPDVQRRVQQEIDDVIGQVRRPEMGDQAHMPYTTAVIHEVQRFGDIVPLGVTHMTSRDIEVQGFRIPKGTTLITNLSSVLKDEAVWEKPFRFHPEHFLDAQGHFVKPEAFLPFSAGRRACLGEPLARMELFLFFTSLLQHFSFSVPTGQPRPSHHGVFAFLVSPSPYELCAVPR
Method: as §3, §4, §5, §6, §7, §8, §9, §10, §11, §12, §13, §14, §15, §16, §17

CYP2C19 = CYP2C19 (Homo sapiens, UniProt P33261); experiment: In vitro CYP inhibition in human liver microsomes, CYP2C19
CYP2C19, sequence (P33261 whole entry): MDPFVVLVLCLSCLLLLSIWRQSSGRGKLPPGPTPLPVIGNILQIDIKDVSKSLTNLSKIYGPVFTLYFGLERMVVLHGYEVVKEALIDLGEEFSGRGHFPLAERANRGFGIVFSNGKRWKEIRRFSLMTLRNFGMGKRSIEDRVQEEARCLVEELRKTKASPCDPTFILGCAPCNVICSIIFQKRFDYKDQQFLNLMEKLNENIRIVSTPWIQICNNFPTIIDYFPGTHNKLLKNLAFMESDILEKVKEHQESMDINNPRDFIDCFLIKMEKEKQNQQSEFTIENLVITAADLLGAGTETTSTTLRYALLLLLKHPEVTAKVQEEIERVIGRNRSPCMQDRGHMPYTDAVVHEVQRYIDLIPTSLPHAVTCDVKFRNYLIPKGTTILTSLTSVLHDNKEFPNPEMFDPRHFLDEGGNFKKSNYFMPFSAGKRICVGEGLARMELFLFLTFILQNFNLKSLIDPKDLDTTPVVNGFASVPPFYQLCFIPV
Method: as §3, §4, §5, §6, §7, §8, §9, §10, §11, §12, §13, §14, §15, §16, §17

CYP3A-M = CYP3A-M (Homo sapiens, UniProt P08684); experiment: In vitro CYP inhibition in human liver microsomes, CYP3A-M
CYP3A-M, sequence (P08684 2-503): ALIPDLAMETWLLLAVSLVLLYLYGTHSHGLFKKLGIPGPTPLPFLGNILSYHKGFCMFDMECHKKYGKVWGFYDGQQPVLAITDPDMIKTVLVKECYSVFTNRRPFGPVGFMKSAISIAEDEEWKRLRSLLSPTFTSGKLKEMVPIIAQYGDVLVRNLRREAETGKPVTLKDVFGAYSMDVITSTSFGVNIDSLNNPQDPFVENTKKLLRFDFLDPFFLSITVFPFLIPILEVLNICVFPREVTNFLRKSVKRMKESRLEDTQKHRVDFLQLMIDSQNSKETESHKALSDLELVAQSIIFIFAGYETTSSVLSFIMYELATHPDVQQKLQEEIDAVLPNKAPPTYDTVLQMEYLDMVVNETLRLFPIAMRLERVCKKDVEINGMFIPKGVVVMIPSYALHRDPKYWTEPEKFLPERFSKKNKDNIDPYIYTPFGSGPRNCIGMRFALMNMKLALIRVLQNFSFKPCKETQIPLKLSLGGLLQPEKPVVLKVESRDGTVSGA
Method: as §3, §4, §5, §6, §7, §8, §9, §10, §11, §12, §16, §17

[1] = AMP-Glo Assay Kit, substrate cAMP, 23°C, 60 minutes, read-out: PDE3A (IC50)
[2] = AMP-Glo Assay Kit, substrate cAMP, 23°C, 10 minutes, read-out: PDE4B1 (IC50)

T1 sequence (Q14432 whole entry): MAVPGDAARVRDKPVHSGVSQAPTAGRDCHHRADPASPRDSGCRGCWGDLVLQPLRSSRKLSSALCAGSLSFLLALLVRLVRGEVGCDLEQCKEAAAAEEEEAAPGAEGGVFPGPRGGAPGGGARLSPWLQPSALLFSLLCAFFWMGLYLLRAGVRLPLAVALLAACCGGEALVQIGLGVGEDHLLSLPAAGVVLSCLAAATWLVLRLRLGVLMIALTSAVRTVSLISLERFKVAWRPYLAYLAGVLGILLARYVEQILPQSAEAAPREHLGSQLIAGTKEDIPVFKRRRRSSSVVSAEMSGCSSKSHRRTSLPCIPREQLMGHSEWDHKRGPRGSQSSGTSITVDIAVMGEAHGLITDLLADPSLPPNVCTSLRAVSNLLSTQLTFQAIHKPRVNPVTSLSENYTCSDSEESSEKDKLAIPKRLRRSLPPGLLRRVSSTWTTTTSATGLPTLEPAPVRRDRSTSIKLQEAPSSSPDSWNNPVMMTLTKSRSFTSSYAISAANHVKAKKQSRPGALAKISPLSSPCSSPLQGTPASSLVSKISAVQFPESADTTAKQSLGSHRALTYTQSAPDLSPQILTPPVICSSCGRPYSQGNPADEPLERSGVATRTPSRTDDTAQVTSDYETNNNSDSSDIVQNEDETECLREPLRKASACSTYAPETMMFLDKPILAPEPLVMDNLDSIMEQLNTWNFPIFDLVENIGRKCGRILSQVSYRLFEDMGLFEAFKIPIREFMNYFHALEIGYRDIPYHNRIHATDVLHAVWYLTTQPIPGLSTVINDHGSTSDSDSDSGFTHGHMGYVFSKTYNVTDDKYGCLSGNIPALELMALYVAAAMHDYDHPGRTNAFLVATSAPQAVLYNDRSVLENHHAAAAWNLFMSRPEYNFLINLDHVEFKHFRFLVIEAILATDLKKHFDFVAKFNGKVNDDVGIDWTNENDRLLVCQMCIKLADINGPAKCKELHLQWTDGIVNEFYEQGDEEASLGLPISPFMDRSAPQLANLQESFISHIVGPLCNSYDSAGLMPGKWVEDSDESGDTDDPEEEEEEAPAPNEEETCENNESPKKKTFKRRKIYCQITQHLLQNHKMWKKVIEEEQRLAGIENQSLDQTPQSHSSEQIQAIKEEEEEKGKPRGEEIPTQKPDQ

Row | SMILES | pIC50 (PDE3A; [1]) | pIC50 (PDE4B1; [2]) | pIC50 (CYP1A2) | pIC50 (CYP2C9) | pIC50 (CYP2D6) | pIC50 (CYP2C19) | IC50 at 10 min (CYP3A-M; human liver microsomes) [nM] | pIC50 (PDE3A) | pIC50 (PDE4B1) | IC50 at 10 min (CYP3A-M; microsomes) [nM]
1 | CCOc1cc2c(cc1OC)-c1cc(N(CCNC(=O)NOC)c3c(C)cc(C)cc3C)nc(=O)n1CC2 [Compound 86] | 10.47 | 8.10 | < 4.30 | 5.50 | 4.53 | 4.54 | 1630 | – | – | –
2 | CCOc1cc2c(cc1OC)-c1cc(N(CCC(=O)O)c3c(C)cc(C)cc3C)nc(=O)n1CC2 [Compound 61] | – | – | < 4.30 | < 4.30 | < 4.30 | < 4.30 | – | 11.21 | 7.95 | > 50000
3 | CCOc1cc2c(cc1OC)-c1cc(N(CCC(=O)NCCO)c3c(C)cc(C)cc3C)nc(=O)n1CC2 [Compound 82] | – | – | < 4.30 | 5.03 | < 4.30 | < 4.30 | – | 10.06 | 7.85 | 42800
4 | COc1cc2c(cc1OC)-c1c/c(=N\c3c(C)cc(C)cc3C)n(CCNC(N)=O)c(=O)n1CC2 [Ensifentrine, reference compound] | 9.77 | 6.99 | < 4.30 | 5.45 | 4.38 | 4.63 | 8600 | – | – | –
5 | CCOc1cc2c(cc1OC)-c1cc(N(CCNC(N)=O)c3c(C)cc(C)cc3C)nc(=O)n1CC2 [Compound 84] | 11.10 | 8.12 | < 4.30 | 5.34 | < 4.30 | < 4.30 | > 50000 | – | – | –
6 | COc1cc2c(cc1OC)-c1cc(N(c3c(C)cc(C)cc3C)C3CN(C(=O)c4nnc[nH]4)C3)nc(=O)n1CC2 [Compound 56] | 9.09 | 5.05 | – | – | – | – | – | – | – | –
7 | COc1cc2c(cc1OC)-c1cc(=Nc3c(C)cc(C)cc3C)n(CCNC(=O)N3CCOCC3CO)c(=O)n1CC2 (stereo not shown) [Compound 70] | – | – | – | – | – | – | – | 8.91 | 5.55 | –
8 | CCOc1cc2c(cc1OC)-c1cc(N(CCNC(=O)c3c(O)nnn3C)c3c(C)cc(C)cc3C)nc(=O)n1CC2 [Compound 43] | – | – | – | – | – | – | – | 9.72 | 7.87 | –
9 | CCOc1cc2c(cc1OC)-c1cc(N(CCCO)c3c(C)cc(C)cc3C)nc(=O)n1CC2 [Compound 60] | – | – | < 4.30 | 5.41 | < 4.30 | 4.38 | – | 11.48 | 8.20 | > 50000
10 | CCOc1cc2c(cc1OC)-c1cc(N(CCN3CC(F)C3)c3c(C)cc(C)cc3C)nc(=O)n1CC2 [Compound 74] | 10.30 | 8.09 | – | – | – | – | – | – | – | –
11 | CCOc1cc2c(cc1OC)-c1cc(N(c3c(C)cc(C)cc3C)C(CO)CO)nc(=O)n1CC2 [Compound 80] | – | – | < 4.30 | 5.00 | < 4.30 | 4.50 | – | 11.55 | 8.13 | 43500
12 | CCOc1cc2c(cc1OC)-c1cc(=Nc3c(C)cc(C)cc3C)n(CCC(C)(C)O)c(=O)n1CC2 [Compound 54] | 9.37 | 6.16 | – | – | – | – | – | – | – | –
13 | COc1cc2c(cc1OC)-c1cc(=Nc3c(C)cc(C)cc3F)n(CCNC(N)=O)c(=O)n1CC2 [Compound 66] | – | – | – | – | – | – | – | 9.19 | 6.57 | –
14 | COc1cc2c(cc1OC1CCOC1)CCn1c-2cc(=Nc2c(C)cc(C)cc2C)n(CCNC(N)=O)c1=O (stereo not shown) [Compound 25] | – | – | – | – | – | – | – | 8.35 | 6.42 | –
15 | CCOc1cc2c(cc1OC)-c1cc(N(CCO)c3c(C)cc(C)cc3C)nc(=O)n1CC2 [Compound 75] | – | – | < 4.30 | 5.08 | < 4.30 | 4.51 | – | – | – | 33200
16 | CCOc1cc2c(cc1OC)-c1cc(=Nc3c(C)cc(C)cc3C)n(CCNC(=O)c3ccnn(C)c3=O)c(=O)n1CC2 [Compound 59] | – | – | – | – | – | – | – | 9.12 | 7.56 | –
17 | CCOc1cc2c(cc1OC)-c1cc(=Nc3c(C)cc(C)cc3C)n(CCC(N)C(F)(F)F)c(=O)n1CC2 (stereo not shown) [Compound 79] | 9.48 | 5.54 | – | – | – | – | – | – | – | –
18 | CCOc1cc2c(cc1OC)-c1cc(N(CCN3CCN(C(C)=O)CC3)c3c(C)cc(C)cc3C)nc(=O)n1CC2 [Compound 71] | 10.24 | 7.88 | – | – | – | – | – | – | – | –
19 | CCOc1cc2c(cc1OC)-c1cc(=Nc3c(C)cc(C)cc3C)n(CCNC(=O)c3c(O)nnn3C)c(=O)n1CC2 [Compound 23] | – | – | – | – | – | – | – | 11.24 | 7.89 | –
20 | COc1cc2c(cc1OC)-c1cc(=Nc3c(C)cc(C)cc3C)n(CCNC(=O)c3cccn(C)c3=O)c(=O)n1CC2 [Compound 39] | – | – | – | – | – | – | – | 9.14 | 7.73 | –
21 | COc1cc2c(cc1OC)-c1cc(=Nc3c(C)cc(C)cc3C)n(CCC(C)(C)O)c(=O)n1CC2 [Compound 17] | 9.27 | 5.30 | – | – | – | – | – | – | – | –
22 | CCOc1cc2c(cc1OC)-c1cc(=Nc3c(C)cc(C)cc3C)n(CCNC(=O)c3ccnc(Cl)c3)c(=O)n1CC2 [Compound 29] | – | – | – | – | – | – | – | 8.32 | 6.37 | –
23 | CCOc1cc2c(cc1OC)-c1cc(N(CCNC(=O)c3c[nH]nn3)c3c(C)cc(C)cc3C)nc(=O)n1CC2 [Compound 64] | 10.72 | 8.08 | – | – | – | – | – | – | – | –
24 | COc1cc2c(cc1OC)-c1cc(N(CCNC(=O)c3cccn(C)c3=O)c3c(C)cc(C)cc3C)nc(=O)n1CC2 [Compound 46] | – | – | – | – | – | – | – | 10.09 | 7.75 | –
25 | COc1cc2c(cc1OC)-c1cc(=Nc3c(C)cc(C)cc3C)n(CCNC(N)=O)c(=O)n1CCO2 [Compound 22] | – | – | – | – | – | – | – | 8.48 | 6.14 | –

Source: patent publication EP4714952A1, “COMPOUND AND USE THEREOF” (Autobio Group Co., Ltd., priority 2023, dated 2025)
